Several values for one entry are separate records, joined by “and”; a condition that tells them apart may be missing. Identical values can stand only once. Like-named read-outs stand apart in the source and are kept apart here.
Assays:
[1] = target: T1, TRPC1/5 heteromers (Homo sapiens, UniProt P48995+Q9UL62); experiment: Whole-cell patch-clamp, inhibition of EA-activated TRPC1/5 heteromers; format: cell-based
T1 construct: wild type plasmids full-length hTRPC1 (WT) and full-length hTRPC5 (WT); expressed in transfected cells; host or cells: HEK293T
Source text: The full-length hTRPC5 or truncated mTRPC5, and the full-length hTRPC1 constructs was respectively co-transfected in a plasmid ration 1:3 (w/w) into HEK293T cells (from the ATCC). As previously described, a mCherry was inserted into TRPC5 constructs and a GFP was inserted at the C terminus of TRPC1. Therefore, Cells with red and green fluorescence were selected for whole-cell patch recordings (HEKA EPC10 amplifier, […] software (https://www.heka.com/downloads/downloads_main.html#down_patchmaster)). A 1-s ramp protocol from −100 to +100 mV was applied at a frequency of 0.2 Hz. Signals were sampled at 50 kHz and filtered at 2.9 kHz. The pipette solution contained 130 mM CsCl, 1 mM MgCl2, 5.7 mM CaCl2, 10 mM EGTA, and 10 mM Hepes (calculated free Ca^2+, 200 nM), and the pH was titrated to 7.2 using CsOH[40]. The standard bath solution contained 140 mM NaCl, 5 mM KCl, 1 mM MgCl2, 2 mM CaCl2, 10 mM Hepes, and 10 mM D-glucose, and the pH was adjusted to 7.4 with NaOH (1 M). The recording chamber (150 μL) was perfused at a rate of ~2 mL/min. All recordings were performed at room temperature.

[2] = target: T2, TRPC7 homomer (Homo sapiens, UniProt Q9HCX4); experiment: Whole-cell patch-clamp, inhibition of TRPC7 homomer; format: cell-based
T2 construct: expressed in transfected cells
T2 sequence (Q9HCX4 1-862): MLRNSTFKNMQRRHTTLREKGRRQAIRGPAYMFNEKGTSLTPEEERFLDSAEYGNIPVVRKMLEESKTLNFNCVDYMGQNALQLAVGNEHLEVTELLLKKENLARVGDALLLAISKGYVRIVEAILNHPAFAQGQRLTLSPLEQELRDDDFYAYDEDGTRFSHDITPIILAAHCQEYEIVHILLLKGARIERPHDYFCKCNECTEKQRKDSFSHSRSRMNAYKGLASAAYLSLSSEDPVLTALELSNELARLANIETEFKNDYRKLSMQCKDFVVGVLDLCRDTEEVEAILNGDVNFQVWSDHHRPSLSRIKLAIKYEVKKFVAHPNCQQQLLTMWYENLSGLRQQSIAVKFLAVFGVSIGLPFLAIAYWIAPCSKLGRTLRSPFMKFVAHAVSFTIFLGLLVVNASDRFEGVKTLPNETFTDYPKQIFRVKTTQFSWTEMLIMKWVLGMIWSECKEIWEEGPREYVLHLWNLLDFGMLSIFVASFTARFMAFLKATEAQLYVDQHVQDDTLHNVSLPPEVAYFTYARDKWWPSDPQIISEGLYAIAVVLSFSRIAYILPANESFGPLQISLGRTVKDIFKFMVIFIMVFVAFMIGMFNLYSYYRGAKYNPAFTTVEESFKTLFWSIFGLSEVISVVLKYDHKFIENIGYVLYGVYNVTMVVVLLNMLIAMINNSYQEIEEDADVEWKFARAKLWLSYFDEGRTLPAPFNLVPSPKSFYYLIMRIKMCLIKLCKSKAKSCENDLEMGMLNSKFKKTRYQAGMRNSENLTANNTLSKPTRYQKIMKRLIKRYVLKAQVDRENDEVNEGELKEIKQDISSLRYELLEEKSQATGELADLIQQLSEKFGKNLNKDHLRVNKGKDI
Source text: Error bars represent the standard error of the mean (SEM, n = 5 independent cells).

[3] = test system: lateral amygdala (LA) neurons; experiment: Current-clamp recordings in acute brain slices, CCK-4-induced hyperexcitability; format: cell-based, mouse; conditions: ex vivo brain slices
Description: Coronal brain slices (300 μm) were prepared from male C57BL/6 J mice (8–10 weeks, Jinan Pengyue Laboratory Animal Breeding Co., Ltd., Jinan, China) and initially incubated in ACSF-1.5 at 32 for 30 min, followed by an additional 1 h at room temperature. Subsequently, slices were transferred to oxygenated artificial cerebrospinal fluid (ACSF) containing the test compound and incubated for 2–3 h before being placed in a recording chamber perfused with ACSF-1.5.
Electrophysiological recordings were performed under an Olympus microscope equipped with a 40× long-working-distance objective. Recording electrodes (3-4 MΩ) were pulled from borosilicate glass capillaries. […] After achieving a gigaseal in voltage-clamp mode at −70 mV and establishing whole-cell configuration with series resistance compensation, recordings were switched to current-clamp mode. Step currents ranging from −60 pA to 300 pA (Δ = 20 pA, 500 ms duration, 3 s interval) were applied to evoke action potentials. […] Intracellular solution (mM): 140 K-gluconate, 2 MgCl₂, 8 KCl, 10 HEPES, 2 Na₂-ATP, 0.2 Na₂-GTP; pH adjusted to 7.2 with KOH.
(d) Quantification of action potential
Data are presented as mean ± SEM (n = 11 neurons

[4] = test system: CUMS-induced depressive-like behaviors; experiment: Sucrose preference test (SPT) in CUMS model; format: in vivo, mouse; conditions: CUMS mice
Description: The stressors included food and water deprivation, foot shock, wet bedding, cage tilting, restraint, shaking, and olfactory stimulation. These seven stressors were randomly applied each week to ensure unpredictability. The stress induction was maintained continuously for 28 days. Following model establishment, the tail suspension test (TST) was performed to confirm the successful induction of depressive-like behaviors. Mice that met the criteria were randomly assigned to experimental groups.
Acute Treatment: A single dose of the test compound was administered, followed by the sucrose preference test (SPT).
Chronic Treatment: Mice were treated daily for 14 consecutive days. The SPT was conducted on day 11, and the forced swimming test (FST) was performed on day 14.
Mice were acclimated to 1% sucrose solution and plain water for 2 days. On the second day, the positions of the sucrose solution and water were swapped to eliminate positional bias. […] Mice were provided with pre-weighed 1% sucrose solution and plain water. […] Sucrose preference (%) was calculated as Sucrose Preference = A/(A + B)×100.

[5] = Pharmacokinetics in mouse after p.o. and i.v. administration; format: in vivo; conditions: for AUC(0-inf): read-out: AUCINF_obs; for clearance: read-out: CL_obs; for MRT inf: read-out: MRTINF_obs
[6] = test system: mCPP-induced anxiety; experiment: Elevated plus maze (EPM) test, mCPP-induced anxiety model; conditions: mCPP mice; single dose; JD03-02 3, 10, 30 mg/kg i.g.
[7] = C57BL/6J, mouse, in vivo, iv, 2 mg/kg, mouse 2mg/kg i.v., Mean
[8] = C57BL/6J, mouse, in vivo, iv, 2 mg/kg, mouse 2mg/kg i.v., individual animals 4-6
[9] = C57BL/6J, mouse, in vivo, po, 10 mg/kg, mouse 10mg/kg p.o., Mean
[10] = C57BL/6J, mouse, in vivo, po, 10 mg/kg, mouse 10mg/kg p.o., individual animals 1-3
[11] = mouse 2mg/kg i.v., individual animals 4-6, listed as JD03-02, 2 mg/kg
[12] = mouse 10mg/kg p.o., individual animals 1-3, listed as JD03-02, 10 mg/kg

T1 sequence (P48995 whole entry): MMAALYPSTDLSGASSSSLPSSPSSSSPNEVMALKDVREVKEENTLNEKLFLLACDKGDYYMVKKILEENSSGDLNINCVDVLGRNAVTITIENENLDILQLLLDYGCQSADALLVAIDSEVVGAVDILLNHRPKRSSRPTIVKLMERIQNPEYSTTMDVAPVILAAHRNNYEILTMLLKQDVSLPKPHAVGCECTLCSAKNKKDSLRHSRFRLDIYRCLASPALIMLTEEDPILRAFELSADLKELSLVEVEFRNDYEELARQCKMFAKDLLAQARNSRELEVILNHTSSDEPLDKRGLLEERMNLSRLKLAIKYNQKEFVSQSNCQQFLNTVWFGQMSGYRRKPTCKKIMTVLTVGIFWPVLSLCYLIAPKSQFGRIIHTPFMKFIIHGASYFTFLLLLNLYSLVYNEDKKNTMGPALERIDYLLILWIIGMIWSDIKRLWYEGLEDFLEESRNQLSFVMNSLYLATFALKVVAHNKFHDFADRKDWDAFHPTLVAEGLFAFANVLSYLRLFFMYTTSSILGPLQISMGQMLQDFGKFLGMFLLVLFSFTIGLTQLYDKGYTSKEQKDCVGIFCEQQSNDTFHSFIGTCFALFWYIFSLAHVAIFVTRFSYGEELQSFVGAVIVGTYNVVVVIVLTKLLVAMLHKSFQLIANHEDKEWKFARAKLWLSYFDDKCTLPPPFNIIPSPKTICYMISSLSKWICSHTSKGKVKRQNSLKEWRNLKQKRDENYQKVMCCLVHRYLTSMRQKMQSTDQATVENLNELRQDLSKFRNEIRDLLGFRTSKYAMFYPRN
T1 sequence (Q9UL62 whole entry): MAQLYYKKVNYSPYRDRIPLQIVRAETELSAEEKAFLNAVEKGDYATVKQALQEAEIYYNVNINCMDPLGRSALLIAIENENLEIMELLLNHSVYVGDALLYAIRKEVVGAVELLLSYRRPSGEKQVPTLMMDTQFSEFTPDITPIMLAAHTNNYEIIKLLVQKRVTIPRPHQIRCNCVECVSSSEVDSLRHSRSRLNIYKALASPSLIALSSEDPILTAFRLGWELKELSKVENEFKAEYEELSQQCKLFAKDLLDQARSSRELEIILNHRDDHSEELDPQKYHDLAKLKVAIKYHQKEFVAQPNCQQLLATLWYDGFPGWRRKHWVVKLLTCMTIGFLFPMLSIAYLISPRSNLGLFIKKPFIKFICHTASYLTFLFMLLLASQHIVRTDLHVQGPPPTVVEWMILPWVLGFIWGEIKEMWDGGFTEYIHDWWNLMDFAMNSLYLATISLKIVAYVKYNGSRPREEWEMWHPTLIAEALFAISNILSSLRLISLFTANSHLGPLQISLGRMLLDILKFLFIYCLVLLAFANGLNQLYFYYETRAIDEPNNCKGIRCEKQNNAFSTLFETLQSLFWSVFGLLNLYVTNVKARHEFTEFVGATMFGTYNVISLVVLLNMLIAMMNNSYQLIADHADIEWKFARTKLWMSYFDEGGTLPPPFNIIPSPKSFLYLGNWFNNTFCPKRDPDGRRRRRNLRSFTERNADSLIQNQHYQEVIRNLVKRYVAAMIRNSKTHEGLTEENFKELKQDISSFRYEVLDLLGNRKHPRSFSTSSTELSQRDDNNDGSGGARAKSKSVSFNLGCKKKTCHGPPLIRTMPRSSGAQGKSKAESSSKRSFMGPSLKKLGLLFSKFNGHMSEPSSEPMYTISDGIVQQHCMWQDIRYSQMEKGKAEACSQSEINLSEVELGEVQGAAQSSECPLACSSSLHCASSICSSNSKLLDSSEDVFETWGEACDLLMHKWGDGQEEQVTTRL

CN(C)CCCCn1c(=O)c2c(nc(Oc3cccc(Cl)c3)n2Cc2ccc(Cl)cc2)n(C)c1=O [H08]
Hill coefficient, TRPC1/C5 heteromer ([1]; combined fitting with additional 0.01 nM and 0.001 nM points (rebuttal)): approximately 0.33 | IC50 ([1]; whole-cell patch-clamp, read-out: IC50, TRPC1/C5): 0.239 nM and 0.2 nM | IC50 [2]: > 10 µM | inhibition of TRPC7 ([2]; 10 μM): no more than 40% | effect on CCK-4-induced hyperexcitability of lateral amygdala neurons (in words) [3]: selectively suppresses CCK-4-induced hyperexcitability | sucrose intake (SPT), repeated dosing ([4]; 11 days once-daily oral, vs vehicle): significantly improved sucrose intake | sucrose preference (SPT), single dose ([4]; single oral dose, JD03-02 30 mg/kg, 30 mg/kg): significantly increased sucrose preference | Tmax ([5]; C57BL/6J, in vivo, po, mouse 10mg/kg p.o., Mean): 1 h | AUC(0-t) [5, 7]: 478 ng·h/mL | half-life [5, 7]: 185 min | AUC(0-inf) [5, 7]: 519 ng·h/mL | clearance [5, 7]: 65.9 mL/min/kg | MRT inf [5, 7]: 3.94 h | AUC(0-t) [5, 8]: 385 ng·h/mL | half-life [5, 8]: 211 min | AUC(0-inf) [5, 8]: 469 ng·h/mL | clearance [5, 8]: 71 mL/min/kg | MRT inf [5, 8]: 4.46 h | AUC(0-t) [5, 9]: 1190 ng·h/mL | half-life [5, 9]: 174 min | AUC(0-inf) [5, 9]: 1220 ng·h/mL | Cmax ([5]; C57BL/6J, mouse, in vivo, po, 10 mg/kg, mouse 10mg/kg p.o., Mean, read-out: Cmax): 201 ng/mL | MRT inf [5, 9]: 5.27 h | half-life [5, 10]: 172 min | AUC(0-inf) [5, 10]: 1300 ng·h/mL | Cmax ([5]; C57BL/6J, mouse, in vivo, po, 10 mg/kg, mouse 10mg/kg p.o., individual animals 1-3, read-out: Cmax): 256 ng/mL | MRT inf [5, 10]: 4.73 h | Kp ([5]; brain and heart plasma, po, 10 mg/kg, mouse p.o., read-out: AUClast brain/AUClast heart plasma (brain-to-plasma ratio, B/P)): 0.67 | Kp at 4 h ([5]; brain and heart plasma, po, 10 mg/kg, mouse p.o., read-out: Clast brain/Cmax heart plasma): 0.83 | bioavailability ([5]; in vivo, oral, mouse 10mg/kg p.o. vs 2mg/kg i.v., read-out: F (oral bioavailability)): 49.8% | Vss_obs ([5]; mouse 2mg/kg i.v., Mean): 15296 mL/kg | AUCINF_obs [5, 11]: 447 ng·h/mL and 640 ng·h/mL | AUClast [5, 11]: 416 ng·h/mL and 634 ng·h/mL | CL_obs [5, 11]: 74.6 mL/min/kg and 52.1 mL/min/kg | MRTINF_obs [5, 11]: 2.895 h and 4.460 h | T1/2 [5, 11]: 2.06 h and 3.69 h | Vss_obs [5, 11]: 18984 mL/kg and 12955 mL/kg and 13949 mL/kg | AUCINF_obs [5, 12]: 1549 ng·h/mL and 800 ng·h/mL | AUClast [5, 12]: 1294 ng·h/mL and 1532 ng·h/mL and 746 ng·h/mL | Cmax [5, 12]: 205 ng/mL and 143 ng/mL | MRTINF_obs [5, 12]: 6.50 h and 4.58 h | T1/2 [5, 12]: 3.35 h and 2.48 h | AUClast ([5]; mouse p.o., brain): 524 ng·h/g | Cmax ([5]; mouse, brain, po, 10 mg/kg, mouse p.o., brain, read-out: Cmax): 265 ng/g | concentration at 4 h ([5]; mouse, brain, single 10 mg/kg oral dose, at 4 hours): ~513 nM | AUC(0-t) ([5]; mouse, heart plasma, po, 10 mg/kg, mouse p.o.): 778 ng·h/mL | Cmax ([5]; mouse, heart plasma, po, 10 mg/kg, mouse p.o., heart plasma, read-out: Cmax): 318 ng/mL | AUC(0-t) ([5]; mouse, portal vein plasma, po, 10 mg/kg, mouse p.o.): 1330 ng·h/mL | Cmax ([5]; mouse, portal vein plasma, po, 10 mg/kg, mouse p.o., portal vein plasma, read-out: Cmax): 493 ng/mL | Tmax ([5]; po, 10 mg/kg, mouse p.o., brain): 4 h | Tmax ([5]; po, 10 mg/kg, mouse p.o., heart plasma): 4 h | Tmax ([5]; po, 10 mg/kg, mouse p.o., portal vein plasma): 0.25 h | EPM open arm entries and time in open arms [6]: increasing numbers of open arm entries and time spent in open arms

From paper PMC13385394, “Cryo-EM Structure of the TRPC1/5 Heteromer Enables Design of Antidepressant and Anxiolytic Drug with Reduced Side Effects” (Nature Communications, 2026)
